≈ marks a conversion by molar mass, not a printed value. Structures can show the parent of a compound that is named as a salt. Where two headings read alike, the source gives them in different places.
What was measured:
[1] = Solubility test: solubility in water; assay type: physicochemical
From the text: In the aforesaid examples, the products were obtained as white solids.
In Table 1, -Ara-C means "-1-β-D-arabinofuranosylcytosine" and -5'-Pna and -5'-PNa2 mean "-1-β-D-arabinofuranosylcytosine-5'-phosphate monosodium salt" and "-1-β-D-arabinofuranosylcytosine-5'-phosphate disodium salt," respectively.

[2] = system: leukemia L-1210; experiment: Antitumour activity in mice inoculated intraperitoneally with leukemia L-1210 (survival, T/C); assay type: in vivo, CDF-1 male mice; details: for response vs control in vivo at 100 mg/kg / response vs control in vivo at 200 mg/kg / response vs control in vivo at 400 mg/kg: Mus musculus, L1210, ip, directly after injection of L-1210, after 2 days and after 6 days; for response vs control in vivo at 100 mg/kg: 100 mg/kg i.p.; for response vs control in vivo at 200 mg/kg: 200 mg/kg i.p.; for response vs control in vivo at 400 mg/kg: 400 mg/kg i.p.; for Antileukemial effect on mice (in words): L-1210 in mice, conclusions in words
Procedure: The antitumour activity for mice of the test material was evaluated by means of survival rate comparison, T/C (%), that is, 100 times the mean survival period of the groups injected with the test material divided by the mean survival period of the comparison groups which were not injected with the test material.
Further, for comparison, the following materials were also subjected to the same biological test: […]

Compound	response vs control in vivo at 100 mg/kg [2] [%]	response vs control in vivo at 200 mg/kg [2] [%]	response vs control in vivo at 400 mg/kg [2] [%]	other results
CCCCCCCCCCCCCCCCC(=O)Nc1ccn([C@@H]2O[C@H](COP(=O)(O)O)[C@@H](O)[C@@H]2O)c(=O)n1 [N^4 -Margaroyl-5'-PNa2]	–	–	–	Solubility in water [1]: > 50000 µg/mL
CCCCCCCC/C=C\CCCCCCCC(=O)Nc1ccn([C@@H]2O[C@H](CO)[C@@H](O)[C@@H]2O)c(=O)n1 [N^4 -Oleoyl-Ara-C]	261	135	94	solubility [1]: 50 µg/mL (≈ 0.0985 mM)
CCCCCCCCCCCCCCCCCC(=O)Nc1ccn([C@@H]2O[C@H](COP(=O)(O)O)[C@@H](O)[C@@H]2O)c(=O)n1 [N^4 -Stearoyl-5'-PNa, N^4-stearoyl-1-β-D-arabinofuranosylcytosine-5'-phosphate monosodium salt]	> 363	> 338	104	Solubility in water ([1]; monosodium salt): > 10000 µg/mL
CCC(=O)Nc1ccn([C@@H]2O[C@H](COP(=O)(O)O)[C@@H](O)[C@@H]2O)c(=O)n1 [N^4 -Propionyl-5'-PNa]	99	100	101	–
O=C(Nc1ccn([C@@H]2O[C@H](COP(=O)(O)O)[C@@H](O)[C@@H]2O)c(=O)n1)C12CC3CC(CC(C3)C1)C2 [N^4 -Adamantoyl-5'-PNa, N^4-adamantoyl-1-β-D-arabinofuranosylcytosine-5'-phosphate monosodium]	–	–	–	Solubility in water [1]: 2000 µg/mL
CCCCCCCCCCCCCCCCCCCCCCCCCCCC(=O)Nc1ccn([C@@H]2O[C@H](COP(=O)(O)O)[C@@H](O)[C@@H]2O)c(=O)n1 [N^4 -Montanoyl-5'-PNa2]	–	–	–	Solubility in water [1]: > 5000 µg/mL
CCCCCCCCCCCCCCCCCC(=O)Nc1ccn([C@@H]2O[C@H](COP(=O)(O)O)[C@@H](O)[C@@H]2O)c(=O)n1 [N^4 -Stearoyl-5'-PNa2, N^4-stearoyl-1-β-D-arabinofuranosylcytosine-5'-phosphate disodium salt]	–	–	–	Solubility in water ([1]; disodium salt): > 50000 µg/mL
CCCCCCCCCCCCCCCCC(=O)Nc1ccn([C@@H]2O[C@H](COP(=O)(O)O)[C@@H](O)[C@@H]2O)c(=O)n1 [N^4 -Margaroyl-5'-PNa, N^4-margaroyl-1-β-D-arabinofuranosylcytosine-5'-phosphate monosodium]	> 395	> 382	101	Solubility in water [1]: > 10000 µg/mL
CCCCCCCCCCCCCCCCCC(=O)Nc1ccn([C@@H]2O[C@H](CO)[C@@H](OP(=O)(O)O)[C@@H]2OP(=O)(O)O)c(=O)n1 [N^4-stearoyl-Ara-C-2',3'-(PNa)2]	184	119	103	–
CC(=O)Nc1ccn([C@@H]2O[C@H](CO)[C@@H](O)[C@@H]2O)c(=O)n1 [N^4 -Acetyl-Ara-C]	125	125	125	–
CCCCCCCCCC(=O)Nc1ccn([C@@H]2O[C@H](CO)[C@@H](O)[C@@H]2O)c(=O)n1 [N^4 -Capryl-Ara-C]	159	188	> 284	–
CCCCC/C=C\C/C=C\CCCCCCCC(=O)Nc1ccn([C@@H]2O[C@H](CO)[C@@H](O)[C@@H]2O)c(=O)n1 [N^4 -Linoleoyl-Ara-C]	268	140	112	–
CCCCCCCCCCCCCCCCCCC(=O)Nc1ccn([C@@H]2O[C@H](CO)[C@@H](O)[C@@H]2O)c(=O)n1 [N^4 -Nonadecanoyl-Ara-C]	382	216	134	–
CCCCCCCC(=O)Nc1ccn([C@@H]2O[C@H](COP(=O)(O)O)[C@@H](O)[C@@H]2O)c(=O)n1 [N^4 -Caprylyl-5'-PNa]	103	101	99	–
CC(=O)Nc1ccn([C@@H]2O[C@H](COP(=O)(O)O)[C@@H](O)[C@@H]2O)c(=O)n1 [N^4 -Acetyl-5'-PNa]	101	99	99	–
CCCCCCCCCC(=O)Nc1ccn([C@@H]2O[C@H](COP(=O)(O)O)[C@@H](O)[C@@H]2O)c(=O)n1 [N^4 -Capryl-5'-PNa]	103	102	98	–
CCCCCCCCCCCCCCC(=O)Nc1ccn([C@@H]2O[C@H](COP(=O)(O)O)[C@@H](O)[C@@H]2O)c(=O)n1 [N^4 -Pentadecanoyl-5'-PNa]	> 302	> 287	86	–
Nc1ccn([C@@H]2O[C@H](COP(=O)(O)O)[C@@H](O)[C@@H]2O)c(=O)n1 [Ara-C-5'-p.circle., 1-β-D-arabinofuranosylcytosine-5'-phosphate]	119	131	143	Antileukemial effect on mice (in words) [2]: inferior to 1-β-D-arabinofuranosylcytosine in antileukemical effect on mice

Compound	response vs control in vivo at 100 mg/kg [2] [%]	response vs control in vivo at 200 mg/kg [2] [%]	response vs control in vivo at 400 mg/kg [2] [%]	other results
CCCCCCCCCCCCCCCCCC(=O)Nc1ccn([C@@H]2O[C@H](CO)[C@@H](O)[C@@H]2OP(=O)(O)O)c(=O)n1 [N^4-stearoyl-Ara-C-2'-PNa, N^4-stearoyl-1-β-D-arabinofuranosylcytosine-2'-phosphate monosodium salt]	228	146	121	–
CCCCCCCCCCCCCCCC(=O)Nc1ccn([C@@H]2O[C@H](COP(=O)(O)O)[C@@H](O)[C@@H]2O)c(=O)n1 [N^4 -Palmitoyl-5'-PNa2]	–	–	–	Solubility in water [1]: > 150000 µg/mL
CCCCCCCCCCCCCCCCCC(=O)Nc1ccn([C@@H]2O[C@H](COP(=O)(O)O)[C@@H](O)[C@@H]2O)c(=O)n1 [N^4-stearoyl-1-β-D-arabinofuranosylcytosine-5'-phosphate]	–	–	–	Antileukemial effect on mice (in words) [2]: had the highest antileukemial effect on mice
CCCC(=O)Nc1ccn([C@@H]2O[C@H](CO)[C@@H](O)[C@@H]2O)c(=O)n1 [N^4 -Butyryl-Ara-C]	131	131	139	–
O=C(Nc1ccn([C@@H]2O[C@H](COP(=O)(O)O)[C@@H](O)[C@@H]2O)c(=O)n1)C12CC3CC(CC(C3)C1)C2 [N^4 -Adamantoyl-5'-PNa2]	–	–	–	Solubility in water [1]: > 10000 µg/mL
CCCCC(=O)Nc1ccn([C@@H]2O[C@H](CO)[C@@H](O)[C@@H]2O)c(=O)n1 [N^4 -Valeryl-Ara-C]	133	171	191	–
CCCCCCCCCCCCCCCCCC(=O)Nc1ccn([C@@H]2O[C@H](CO)[C@@H](OP(=O)(O)O)[C@@H]2O)c(=O)n1 [N^4-stearoyl-Ara-C-3'-PNa]	286	219	112	–
CCCCCC(=O)Nc1ccn([C@@H]2O[C@H](CO)[C@@H](O)[C@@H]2O)c(=O)n1 [N^4 -Caproyl-Ara-C]	125	133	150	–
CCCCCCCCCCCCCC(=O)Nc1ccn([C@@H]2O[C@H](CO)[C@@H](O)[C@@H]2O)c(=O)n1 [N^4 -Myristoyl-Ara-C, N^4-myristoyl-1-β-D-arabinofuranosylcytosine]	206	127	90	–
CCCCCCCCCCCCCCCCCCCCCCCCCCCC(=O)Nc1ccn([C@@H]2O[C@H](CO)[C@@H](O)[C@@H]2O)c(=O)n1 [N^4 -Montanoyl-Ara-C]	–	–	–	solubility [1]: < 10 µg/mL
CCCCCCCCCCCCCCC(=O)Nc1ccn([C@@H]2O[C@H](CO)[C@@H](O)[C@@H]2O)c(=O)n1 [N^4 -Pentadecanoyl-Ara-C]	302	287	91	–
CCCCC/C=C\C/C=C\C/C=C\C/C=C\CCCC(=O)Nc1ccn([C@@H]2O[C@H](CO)[C@@H](O)[C@@H]2O)c(=O)n1 [N^4 -Arachidonoyl-Ara-C]	269	137	114	–
CCCCCCCCCCCCCCCCCCCCCCCCCCCC(=O)Nc1ccn([C@@H]2O[C@H](COP(=O)(O)O)[C@@H](O)[C@@H]2O)c(=O)n1 [N^4 -Montanoyl-5'-PNa, N^4-montanoyl-1-β-D-arabinofuranosylcytosine-5'-phosphate monosodium]	–	–	–	Solubility in water [1]: 1000 µg/mL
O=C(Nc1ccn([C@@H]2O[C@H](CO)[C@@H](O)[C@@H]2O)c(=O)n1)C12CC3CC(CC(C3)C1)C2 [N^4 -Adamantoyl-Ara-C]	–	–	–	solubility [1]: 10 µg/mL (≈ 0.0247 mM)
CCCCC/C=C\C/C=C\CCCCCCCC(=O)Nc1ccn([C@@H]2O[C@H](COP(=O)(O)O)[C@@H](O)[C@@H]2O)c(=O)n1 [N^4 -Linoleoyl-5'-PNa]	275	145	120	–
CCCCCCCCCCCC(=O)Nc1ccn([C@@H]2O[C@H](COP(=O)(O)O)[C@@H](O)[C@@H]2O)c(=O)n1 [N^4 -Lauroyl-5'-PNa]	110	115	115	–
CCCCCCCC/C=C\CCCCCCCC(=O)Nc1ccn([C@@H]2O[C@H](COP(=O)(O)O)[C@@H](O)[C@@H]2O)c(=O)n1 [N^4 -Oleoyl-5'-PNa2]	–	–	–	Solubility in water [1]: > 250000 µg/mL

Reference: patent US4086417A, “Cytidine nucleotide derivatives” (Asahi Kasei Kogyo Kabushiki Kaisha, priority 1974, dated 1978)
